For one assay, the system named is SW480 colon cancer cells. The experiment in a line: Cell viability assay (CellTiter-Blue) in SW480 cells. Format: cell-based. The following applies: Homo sapiens, 96 h, four days; for EC50: CellTiter-Blue, 10 μM to 0.0045 μM; for inhibition at 10 µM: read-out: percent inhibition at 10 μM (given for EC50 of >10 μM). As to the method:
Representative compounds were screened using the following assay procedure to assess the effect on cell viability as described below.
Each compound was dissolved in DMSO as a 10 mM stock and used to prepare compound source plates. Serial dilution (1:3, 8-point dose-response curves from 10 μM to 0.0045 μM) and compound transfer was performed using the ECHO 550 (Labcyte, Sunnyvale, Calif.) into 96-well clear bottom, black-walled plates (Corning-Costar).
Approximately 2×10^3 SW480 colon cancer cells were seeded into each well and allowed to incubate in the presence or absence of compound for four days at 37° C./5% CO2. Eight replicates of DMSO-treated cells served as controls and cells treated with compound were performed in duplicate.
After incubation, 20 μL of CellTiter-Blue (Promega) was added to each well allowed to incubate for approximately 3 hours. This reagent was a buffered solution which contains resazurin, metabolically active cells were able to reduce rezarurin (blue) into resorufin (pink) which was highly fluorescent. This measured fluorescence was used as a readout for cell viability.
After incubation, the plates were read at Ex 560 nm Em 590 nm (Cytation 3, BioTek). Dose-response curves were generated and EC50 concentration values were calculated using non-linear regression curve fit in the GraphPad Prism (San Diego, Calif.) or Dotmatics' Studies Software (Bishops Stortford, UK). For EC50 of >10 μM, the percent inhibition at 10 μM is provided.
In general terms: The colour change of resazurin is a common sign of viable cells or microbes.

In assay [1] the test system is primary human fibroblasts derived from IPF patients (LL29 cells) treated with TGF-β1. The experiment in a line: Inhibition of the fibrotic process: αSMA staining in TGF-β1-treated LL29 fibroblasts. It counts as cell-based. The following applies: Fibroblast; for EC50: 96 h, LL29 fibroblasts treated with TGF-β1 (20 ng/mL), 4 days, Table 4; for inhibition at 10 µM: LL29 fibroblasts treated with TGF-β1, Table 4, read-out: percent inhibition at 10 μM (given in parentheses for EC50 >10 μM). The text has this: Representative compounds were screened using primary human fibroblasts (derived from IPF patients) treated with TGF-β1 to determine their ability to inhibit the fibrotic process.
Human Fibroblast Cell Culture: Primary human fibroblasts derived from IPF patients (LL29 cells) [^1Xiaoqiu Liu, et. al., “Fibrotic Lung Fibroblasts Show Blunted Inhibition by cAMP Due to Deficient cAMP Response Element-Binding Protein Phosphorylation”, Journal of Pharmacology and Experimental Therapeutics (2005), 315(2), 678-687; ^2Watts, K. L., et. al., “RhoA signaling modulates cyclin D1 expression in human lung fibroblasts; implications for idiopathic pulmonary fibrosis”, Respiratory Research (2006), 7(1), 88] were obtained from American Type Culture Collection (ATCC) and expanded in F12 medium supplemented with 15% Fetal Bovine Serum and Penicillin/Streptomycin.
Compound Screening: Each compound was dissolved in DMSO as a 10 mM stock and used to prepare compound source plates. Serial dilution (1:2, 11-point dose-response curves from 10 μM to […]) and compound transfer was performed using the ECHO 550 (Labcyte, Sunnyvale, Calif.) into 384-well clear bottom assay plates (Greiner Bio-One) with appropriate DMSO backfill for a final DMSO concentration of 0.1%. LL29 cells are plated at 1,500 cells/well in 80 μL/well F12 medium supplemented with 1% Fetal Bovine Serum. One hour after addition of the cells, TGF-β1 (Peprotech; 20 ng/mL) was added to the plates to induce fibrosis (ref. 1 and 2 above). Wells treated with TGF-β1 and containing DMSO were used as controls. Cells were incubated at 37° C. and 5% CO2 for 4 days. Following incubation for 4 days, SYTOX green nucleic acid stain (Life Technologies [Thermo Fisher Scientific]) was added to the wells at a final concentration of 1 μM and incubated at room temperature for 30 min. Cells were then fixed using 4% formaldehyde (Electron Microscopy Sciences), washed 3 times with PBS followed by blocking and permeabilization using 3% Bovine Serum Albumin (BSA; Sigma) and 0.3% Triton X-100 (Sigma) in PBS. Cells were then stained with antibody specific to α-smooth muscle actin (αSMA; Abcam) (ref. 1 and 2 above) in 3% Bovine Serum Albumin (BSA; Sigma) and 0.3% Triton X-100 (Sigma) in PBS, and incubated overnight at 4° C. Cells were then washed 3 times with PBS, followed by incubation with Alexa Flor-647 conjugated secondary antibody (Life Technologies [Thermo Fisher Scientific]) and DAPI at room temperature for 1 hour. Cells were then washed 3 times with PBS and plates were sealed for imaging. αSMA staining was imaged by excitation at 630 nm and emission at 665 nm and quantified using the Compartmental Analysis program on the CellInsight CX5 (Thermo Scientific). Dead or apoptotic cells were excluded from analysis based on positive SYTOX green staining. % of total cells positive for αSMA were counted in each well and normalized to the average of 11 wells treated with TGF-β1 on the same plate using Dotmatics' Studies Software. The normalized averages (fold change over untreated) of 3 replicate wells for each compound concentration were used to create dose-responses curves and EC50 values were calculated using non-linear regression curve fit in the Dotmatics' Studies Software. For EC50 of >10 μM, the percent inhibition at 10 μM is provided.

This note sets out measurements from patent US10392383B2, “3-(1H-benzo[d]imidazol-2-yl)-1H-pyrazolo[4,3-b]pyridines and therapeutic uses thereof” (Samumed, LLC, priority 2015, dated 2019).

Each structure is given as a SMILES string. Bounds are passed on as bounds.

By EC50 is commonly meant the midpoint of the concentration-response curve. High values mean a need for much substance, low ones an effect from little substance. Regarding `Fc1cccc(-c2cccc3[nH]c(-c4n[nH]c5ccc(-c6cncc(CN7CCC(F)(F)C7)c6)nc45)nc23)c1` [Compound 26, 5-(5-((3,3-Difluoropyrrolidin-1-yl)methyl)pyridin-3-yl)-3-(4-(3-fluorophenyl)-1H-benzo[d]imidazol-2-yl)-1H-pyrazolo[4,3-b]pyridine], the concentration for a half-maximal effect (EC50) in the assay with SW480 colon cancer cells worked out at 5.82 µM; in assay [1], 1.65 µM.
In general, inhibition refers to the drop in the measured response relative to a control, in per cent. In the assay with SW480 colon cancer cells, `CC(C)(C)C(=O)Nc1cncc(-c2ccc3[nH]nc(-c4nc5c(-c6ccc(F)cc6)cccc5[nH]4)c3n2)c1` [Compound 36, N-(5-(3-(4-(4-Fluorophenyl)-1H-benzo[d]imidazol-2-yl)-1H-pyrazolo[4,3-b]pyridin-5-yl)pyridin-3-yl)pivalamide] gave an EC50 of 8.48 µM. Besides, in assay [1], the inhibition at 10 µM came to 33.6% and the EC50 is > 10 µM.
Turning to `Fc1ccc(-c2cccc3[nH]c(-c4n[nH]c5ccc(-c6cncc(CN7CCCC7)c6)nc45)nc23)cc1` [Compound 42, 3-(4-(4-Fluorophenyl)-1H-benzo[d]imidazol-2-yl)-5-(5-(pyrrolidin-1-ylmethyl)pyridin-3-yl)-1H-pyrazolo[4,3-b]pyridine], the EC50 was found to be 0.547 µM in the assay on SW480 colon cancer cells and 3.51 µM in assay [1].
As to `O=C(Nc1cncc(-c2ccc3[nH]nc(-c4nc5c(-c6ccc(F)cc6)cccc5[nH]4)c3n2)c1)C1CCC1` [Compound 49, N-(5-(3-(4-(4-Fluorophenyl)-1H-benzo[d]imidazol-2-yl)-1H-pyrazolo[4,3-b]pyridin-5-yl)pyridin-3-yl)cyclobutanecarboxamide], in the assay on SW480 colon cancer cells, the inhibition at 10 µM turned out to be 12.9% and the EC50 is > 10 µM. Further, in assay [1], the inhibition at 10 µM came to 0% and the EC50 was > 10 µM.
Turning to `Fc1ccc(-c2cccc3[nH]c(-c4n[nH]c5ccc(-c6cncnc6)nc45)nc23)cc1` [Compound 55, 3-(4-(4-Fluorophenyl)-1H-benzo[d]imidazol-2-yl)-5-(pyrimidin-5-yl)-1H-pyrazolo[4,3-b]pyridine], in the assay on SW480 colon cancer cells, the inhibition at 10 µM came out at 4.1% and the EC50 was > 10 µM. For the same molecule, in assay [1], the EC50 amounted to 3.07 µM.
`Nc1cncc(-c2ccc3[nH]nc(-c4nc5c(-c6ccccc6F)cccc5[nH]4)c3n2)c1` [Compound 59, 5-(3-(4-(2-Fluorophenyl)-1H-benzo[d]imidazol-2-yl)-1H-pyrazolo[4,3-b]pyridin-5-yl)pyridin-3-amine]: the EC50 with SW480 colon cancer cells was found to be 1.64 µM; in assay [1], 1.39 µM.
Turning to `CC(C)C(=O)Nc1cncc(-c2ccc3[nH]nc(-c4nc5c(-c6ccccc6F)cccc5[nH]4)c3n2)c1` [Compound 65, N-(5-(3-(4-(2-fluorophenyl)-1H-benzo[d]imidazol-2-yl)-1H-pyrazolo[4,3-b]pyridin-5-yl)pyridin-3-yl)isobutyramide], in the assay with SW480 colon cancer cells, the inhibition at 10 µM came out at 16.1% and the 50% effective concentration (EC50) is > 10 µM. In assay [1], the response was half-maximal at 4.97 µM (EC50).
For `CC(C)(C)CC(=O)Nc1cncc(-c2ccc3[nH]nc(-c4nc5c(-c6ccccc6F)cccc5[nH]4)c3n2)c1` [Compound 72, N-(5-(3-(4-(2-Fluorophenyl)-1H-benzo[d]imidazol-2-yl)-1H-pyrazolo[4,3-b]pyridin-5-yl)pyridin-3-yl)-3,3-dimethylbutanamide], in that order: 2%, > 10 µM and 2.18 µM.
With `O=C(Nc1cncc(-c2ccc3[nH]nc(-c4nc5c(-c6ccccc6F)cccc5[nH]4)c3n2)c1)C1CCCC1` [Compound 78, N-(5-(3-(4-(2-Fluorophenyl)-1H-benzo[d]imidazol-2-yl)-1H-pyrazolo[4,3-b]pyridin-5-yl)pyridin-3-yl)cyclopentanecarboxamide], in the assay on SW480 colon cancer cells, the inhibition at 10 µM stood at 20% and the concentration giving a half-maximal response (EC50) was > 10 µM. In assay [1], this molecule came in with an EC50 of 2.49 µM.
On to `Fc1ccccc1-c1cccc2[nH]c(-c3n[nH]c4ccc(-c5cncc(CNCC6CCCC6)c5)nc34)nc12` [Compound 81, 1-Cyclopentyl-N-((5-(3-(4-(2-fluorophenyl)-1H-benzo[d]imidazol-2-yl)-1H-pyrazolo[4,3-b]pyridin-5-yl)pyridin-3-yl)methyl)methanamine], for which the EC50 was 1.14 µM with SW480 colon cancer cells and 0.627 µM in assay [1].
Turning to `c1cncc(-c2ccc3[nH]nc(-c4nc5c(-c6cccnc6)cccc5[nH]4)c3n2)c1` [Compound 88, 5-(Pyridin-3-yl)-3-(4-(pyridin-3-yl)-1H-benzo[d]imidazol-2-yl)-1H-pyrazolo [4,3-b]pyridine], in the assay on SW480 colon cancer cells, the response was half-maximal at 6.69 µM (EC50). Moreover, in assay [1], the inhibition at 10 µM stood at 0% and the EC50 was > 10 µM.
Take `CC(C)C(=O)Nc1cncc(-c2ccc3[nH]nc(-c4nc5c(-c6cccnc6)cccc5[nH]4)c3n2)c1` [Compound 93, N-(5-(3-(4-(Pyridin-3-yl)-1H-benzo[d]imidazol-2-yl)-1H-pyrazolo[4,3-b]pyridin-5-yl)pyridin-3-yl)isobutyramide]: the inhibition at 10 µM in the assay on SW480 colon cancer cells was 29.9%; in assay [1] it was 0%. Further, the EC50 (in the assay on SW480 colon cancer cells; in assay [1]) was > 10 µM in each case.
As for `CC(C)Nc1cncc(-c2ccc3[nH]nc(-c4nc5c(-c6cccnc6)cccc5[nH]4)c3n2)c1` [Compound 96, N-Isopropyl-5-(3-(4-(pyridin-3-yl)-1H-benzo[d]imidazol-2-yl)-1H-pyrazolo [4,3-b]pyridin-5-yl)pyridin-3-amine], the EC50 with SW480 colon cancer cells was found to be 8.95 µM; in assay [1] it was 1.21 µM.
Take `c1ccc(CNCc2cncc(-c3ccc4[nH]nc(-c5nc6c(-c7cccnc7)cccc6[nH]5)c4n3)c2)cc1` [Compound 108, N-Benzyl-1-(5-(3-(4-(pyridin-3-yl)-1H-benzo[d]imidazol-2-yl)-1H-pyrazolo [4,3-b]pyridin-5-yl)pyridin-3-yl)methanamine]: the EC50 with SW480 colon cancer cells is 3.18 µM; in assay [1] it was 2.54 µM.
Consider `Cc1ccncc1-c1ccc2[nH]nc(-c3nc4c(-c5ccncc5)cccc4[nH]3)c2n1` [Compound 117, 5-(4-Methylpyridin-3-yl)-3-(4-(pyridin-4-yl)-1H-benzo[d]imidazol-2-yl)-1H-pyrazolo[4,3-b]pyridine], for which, in the assay on SW480 colon cancer cells, the inhibition at 10 µM amounted to 16.9% and the EC50 was > 10 µM. For the same molecule, in assay [1], the inhibition at 10 µM was found to be 0% and the EC50 was > 10 µM.
As to `O=C(Cc1ccccc1)Nc1cncc(-c2ccc3[nH]nc(-c4nc5c(-c6ccncc6)cccc5[nH]4)c3n2)c1` [Compound 122, 2-Phenyl-N-(5-(3-(4-(pyridin-4-yl)-1H-benzo[d]imidazol-2-yl)-1H-pyrazolo [4,3-b]pyridin-5-yl)pyridin-3-yl)acetamide], the EC50 with SW480 colon cancer cells was found to be 1.45 µM; in assay [1], 4.97 µM.
